Test results published in patent US12029751B2, “Therapeutic agent for nervous system disease” (OSAKA UNIVERSITY, priority 2017, dated 2024).

System: rat spinal cord injury model
Experiment: Immunofluorescent staining of macrophages (M1, M2, M1/M2 ratio) in rat spinal cord injury model
Type: in vivo
Set-up: Number of macrophages: unit: /mm2
Experimental: Six-week-old female Wistar rats were used. The rats were purchased from Charles River Laboratories Japan, Inc. (Yokohama, Japan). Anesthesia was performed as follows. A 1:10 dilution of a mixture of three anesthetic agents in physiological saline was administered by intraperitoneal injection. One dose consisted of 0.2 mg/kg of midazolam, 0.015 mg/kg of medetomidine, and 0.25 mg/kg of butorphanol. The rat was placed in a prone position on an operating table, and a dorsal midline incision was made. The T10 vertebral arch was removed to expose the posterior face of the spinal cord, and the left spinal cord was hemisected using a sharp-pointed surgical scalpel (spitz mess). The skin was sutured using a 4-0 nylon thread and the surgery was completed. A comparison was made among three groups: a methylcobalamin treatment group, an untreated group, and a sham group. Immediately after the surgical operation, an osmotic minipump filled with methylcobalamin (1 mg/kg/day) or physiological saline was placed for the methylcobalamin treatment group and the untreated group, respectively, and left in the left dorsal subcutaneous space. The sham group underwent only resection of the Th10 vertebral arch.
The rat spinal cord injury model of Example 9-1 was used. At 7, 14, and 28 days after the surgery, the rats were anesthetized with an anesthetic agent, and perfusion fixation was performed with 4% PFA. Then, the spinal cord including the injury site was collected and fixed with 20% sucrose for 24 hours, and the fixed spinal cord was freeze-embedded. The embedded tissue was sliced into a 5-μm-thick slice in a nerve short-axis direction and placed on a glass slide. The slice was dried for 1 hour and fixed with 100% methanol for 30 minutes. The fixed slices were blocked, and cells were allowed to react with primary antibodies at 4° C. overnight. The cells were further allowed to react with a secondary antibody at room temperature for 1 hour so that the nuclei were labeled with DAPI.
Using transverse spinal cord sections on the affected side at 2 and 1 mm on the head side and at 1 and 2 mm on the tail side from the injury site, the number of macrophages, the number of M1 (pro-inflammatory type) macrophages, the proportion of M1 macrophages, the number of M2 (anti-inflammatory type) macrophages, and the proportion of M2 macrophage per unit area, as well as the M1/M2 ratio were measured and calculated.
The primary antibodies used were an anti-CD68 antibody, an anti-iNOS antibody, and an anti-Arg1 antibody. The secondary antibodies used were an Alexa 488-labeled goat anti-rabbit IgG antibody and an Alexa 568-labeled goat anti-mouse IgG antibody.

[1] = 7, 14 and 28 days after the surgery, 1 mg/kg/day
[2] = Table 16 (FIG. 16; day not given), 1 mm on the head side
[3] = Table 16 (FIG. 16; day not given), 1 mm on the tail side
[4] = Table 16 (FIG. 16; day not given), 2 mm on the head side
[5] = Table 16 (FIG. 16; day not given), 2 mm on the tail side
[6] = Table 17 (FIG. 17; day not given), 1 mm on the head side
[7] = Table 17 (FIG. 17; day not given), 1 mm on the tail side
[8] = Table 17 (FIG. 17; day not given), 2 mm on the head side
[9] = Table 17 (FIG. 17; day not given), 2 mm on the tail side
[10] = Table 18 (FIG. 18; day not given), 1 mm on the head side
[11] = Table 18 (FIG. 18; day not given), 1 mm on the tail side
[12] = Table 18 (FIG. 18; day not given), 2 mm on the head side
[13] = Table 18 (FIG. 18; day not given), 2 mm on the tail side

In the case of `C/C1=C2/[N-][C@H]([C@H](CC(N)=O)[C@@]2(C)CCC(=O)NC[C@@H](C)OP(=O)([O-])O[C@H]2[C@@H](O)[C@@H](n3cnc4cc(C)c(C)cc43)O[C@@H]2CO)[C@]2(C)N=C(/C(C)=C3N=C(/C=C4N=C1[C@@H](CCC(N)=O)C\4(C)C)[C@@H](CCC(N)=O)[C@]\3(C)CC(N)=O)[C@@H](CCC(N)=O)[C@]2(C)CC(N)=O.[CH3-].[Co+3]` [MeCbl, methylcobalamin], the “M1 macrophages as compared with the untreated group” value [1] is reported as “trends for decreased M1 macrophages”, the “M2 macrophages as compared with the untreated group” value [1] is reported as “increased M2 macrophages” and the “number of accumulated macrophages per unit area as compared with the untreated group” value [1] is reported as “trends for a smaller number”. It also gave an M1/M2 (7 days after a surgery, 1 mm on the head side) of 0.5722, an M1/M2 (7 days after a surgery, 1 mm on the tail side) of 0.602 and an M1/M2 (7 days after a surgery, 2 mm on the head side) of 0.8156. For the same compound, the M1/M2 (7 days after a surgery, 2 mm on the tail side) was 0.9337, the M1/M2 (14 days after a surgery, 1 mm on the head side) was 0.993 and the M1/M2 (14 days after a surgery, 1 mm on the tail side) was 0.9409. The M1/M2 (14 days after a surgery, 2 mm on the head side) was 0.9106, the M1/M2 (14 days after a surgery, 2 mm on the tail side) was 0.8605 and the M1/M2 (28 days after a surgery, 1 mm on the head side) was 2.457. For the same compound, the M1/M2 (28 days after a surgery, 1 mm on the tail side) was 4.3, the M1/M2 (28 days after a surgery, 2 mm on the head side) was 3.355 and the M1/M2 (28 days after a surgery, 2 mm on the tail side) was 3.545. For the same compound, the M1 macropage ratio [2] was 0.131, the “Number of M1 macrophages/mm2” value [2] was 37.00 /mm2 and the “Number of M2 macrophages/mm2” value [2] was 63.85 /mm2. The Number of macrophages [2] was 268.62, the M1 macropage ratio [3] was 0.129 and the “Number of M1 macrophages/mm2” value [3] was 43.07 /mm2. For the same compound, the “Number of M2 macrophages/mm2” value [3] was 76.13 /mm2, the Number of macrophages [3] was 348.57 and the M1 macropage ratio [4] was 0.143. The “Number of M1 macrophages/mm2” value [4] was 20.43 /mm2, the “Number of M2 macrophages/mm2” value [4] was 25.87 /mm2 and the Number of macrophages [4] was 143.68. The M1 macropage ratio [5] was 0.170, the “Number of M1 macrophages/mm2” value [5] was 27.02 /mm2 and the “Number of M2 macrophages/mm2” value [5] was 28.76 /mm2. The Number of macrophages [5] was 155.09, the M1 macrophage ratio [6] was 0.122 and the M2 macrophage ratio [6] was 0.130. For the same compound, the “Number of M1 macropages/mm2” value [6] was 48.35 /mm2, the “Number of M2 macrophages/mm2” value [6] was 47.90 /mm2 and the Number of macrophages [6] was 362.17. The M1 macrophage ratio [7] was 0.102, the M2 macrophage ratio [7] was 0.112 and the “Number of M1 macropages/mm2” value [7] was 43.74 /mm2. The “Number of M2 macrophages/mm2” value [7] was 43.12 /mm2, the Number of macrophages [7] was 395.70 and the M1 macrophage ratio [8] was 0.103. For the same compound, the M2 macrophage ratio [8] was 0.146, the “Number of M1 macropages/mm2” value [8] was 28.35 /mm2 and the “Number of M2 macrophages/mm2” value [8] was 36.37 /mm2. It also gave a Number of macrophages [8] of 271.15, an M1 macrophage ratio [9] of 0.094 and an M2 macrophage ratio [9] of 0.143. The “Number of M1 macropages/mm2” value [9] was 25.54 /mm2, the “Number of M2 macrophages/mm2” value [9] was 28.29 /mm2 and the Number of macrophages [9] was 254.39. For the same compound, the M1 macrophage ratio [10] was 0.090, the M2 macropahge ratio [10] was 0.039 and the “Number of M1 macrophages/mm2” value [10] was 29.78 /mm2. The “Number of M2 macrophages/mm2” value [10] was 12.86 /mm 2, the Number of macrophages [10] was 320.22 and the M1 macrophage ratio [11] was 0.132. The M2 macropahge ratio [11] was 0.032, the “Number of M2 macrophages/mm2” value [11] was 10.33 /mm 2 and the Number of macrophages [11] was 342.11. For the same compound, the “Number of M1 macrophages/mm2” value (Table 18 (FIG. 18; day not given), 1 mm on the tail side (last position column)) was 24.68 /mm2, the “Number of M1 macrophages/mm2” value (Table 18 (FIG. 18; day not given), 1 mm on the tail side (third position column)) was 44.79 /mm2 and the M1 macrophage ratio [12] was 0.089. The M2 macropahge ratio [12] was 0.032, the “Number of M1 macrophages/mm2” value [12] was 20.16 /mm2 and the “Number of M2 macrophages/mm2” value [12] was 7.65 /mm 2. The Number of macrophages [12] was 230.75, the M1 macrophage ratio [13] was 0.095 and the M2 macropahge ratio [13] was 0.032. For the same compound, the “Number of M2 macrophages/mm2” value [13] was 7.42 /mm 2 and the Number of macrophages [13] was 246.52.
